Test results published in patent publication US5912247A, “Quinazoline compound and anti-tumor agent containing said compound as an active ingredient” (Kanebo, Ltd., priority 1995, dated 1999).
Where a name gives a salt, the structure may show the parent alone.

Tests used:
[1] = Acute toxicity; settings: mouse, in vivo, one week observation
Procedure: Test Animal: Male ddY mice (5 week old, five mice per group)
To male ddY mice was administered a solution of a test compound in saline intravenously, or a solution of a test compound in distilled water orally. One week after the administration, the number of death of mice was counted, and the LD50 was calculated therefrom by a probit method.

[2] = system: St-4 solid tumor (human gastric cancer transplantable to nude mouse); assay: Anti-tumor activity against human gastric cancer St-4 (solid tumor) transplanted to nude mouse; format: in vivo, human (in male BALB/cA JCI-nu nude mice)
Source text: Anti-tumor activity against human gastric cancer St-4 (solid tumor) transplanted to nude mouse: a) Materials: Test Animal: Male BALB/cA JCI-nu nude mice (six week old, six mice per group) Tumor: St-4 solid tumor (human gastric cancer transplantable to nude mouse) b) Test Method: St-4 solid tumor was cut to about 3 mm cubic, and the fragments were subcutaneously transplanted into the back at one side of the nude mice with a trockar. Ten days after the transplantation, the longitudinal size (L) and the size of the width direction (W) of the tumor were measured. The tumor weight was calculated by the formula: L×W×W/2, and when the weight of the tumor reached 100 mg to 300 mg, the mice were randomized. To the mice in test groups, the test compound was orally administered once a day for 40 days. The test compounds of this invention were administered in an amount of 30 mg/kg or 40 mg/kg in the form of a solution in distilled water, and No. 5666 was administered in an amount of 30 mg/kg or 100 mg/kg in the form of a suspension in 5% arabic gum solution. After the administration of the test compounds, the longitudinal size and the size in the width direction of the tumor were measured, and then the weight of tumor was calculated. The ratio of the tumor weight after treated with test compounds to the tumor weight before administration of test compounds (i.e. the relative tumor weight) was determined. As to the control group, the relative tumor weight was also determined likewise. The anti-tumor activity was evaluated in the same manner as described in Ann. Clin. Lab. Sci., 8 (1), 50 (1978). That is, the ratio of the relative tumor weight in the test group (T) to that in the control group (C) [T/C (%)] was calculated, and when the minimum of the ratio [Min.

[3] = system: Colon 26 solid tumor; assay: Inhibitory activity of dye accumulation in the solid tumor tissue (inhibition of the tumor blood flow); format: in vivo, Male BALB/c mice; parameters: key to Inhibitory activity of dye accumulation into solid tumor: +: The average absorbance in the test group is significantly smaller than the average absorbance in the control group.; -: There is no significant difference in the average absorbance between the test group and the control group; settings: for Inhibitory activity of dye accumulation into solid tumor: intravenous, Evans blue 1 hour after administration
Procedure: Inhibitory activity of dye accumulation in the solid tumor tissue (inhibition of the tumor blood flow): a) Materials: Test Animal: Male BALB/c mice (weighing 21-27 g, six mice per group) Tumor: Colon 26 solid tumor b) Test Method: Colon 26 solid tumor was cut in a size of about 1 mm square. The pieces of solid tumor were treated with a 0.25% collagenase solution and 0.02% deoxyribonuclease solution at 37° C. for 1.5 hour to give a cell suspension of colon 26 solid tumor cells. The cell suspension was adjusted to 3×10^6 cells/ml and the cell suspension (100 μl) was subcutaneously inoculated on the right back of male BALB/c mice. Ten days after the transplantation, the longitudinal size of the tumor was measured, and when the longitudinal size of the tumor reached about 10 mm, the mice were randomized. To the mice in test groups, the test compound was intravenously administered in an amount of 10 mg/kg or 1.25 mg/kg. The test compound was administered in the form of a solution in saline (in the test solution of Test Compound BF and BK, an equimolar amount of fumaric acid was further added, and in the test solution of Test Compound BN, an equimolar amount of hydrochloric acid was further added). To the mice in the control group, only saline was administered intravenously. One hour after the administration, 3% Evans blue-saline solution was injected intravenously via the tail vein of the mice in a volume of 0.1 ml per 10 g of the body weight of mouse, and 5 minutes later the mice were killed by luxation of the cervical vertebrae. After removing the tumor, the tumor was weighed. To extract Evans blue, the tumor was suspensed in 0.5% aqueous sodium sulfate (1.5 ml per 1 g of the tumor) and acetone (3.5 ml per 1 g of tumor), and then the tumor was cut into small pieces. After allowing to stand at room temperature overnight, the suspension were centrifuged at 3,000 rpm for 10 minutes to extract Evans blue, and the absorbance of the supernatant was read at 630 nm. […] (-): There is no significant difference in the average absorbance between the test group and the control group.

[4] = system: test blood cell suspension; assay: Hemolytic activity; format: cell-based, Male Donryu rats; settings: 20 μg/ml
Procedure: (§1) Hemolytic activity: a) Materials: Test Animal: Male Donryu rats Test Compounds: The same as in Experiment 1 b) Test Method: Blood (about 6 ml or more) was collected from abdominal large vein of male Donryu rats, which was taken in a test tube containing dipotassium ethylenediamine tetraacetate (10 mg). The blood thus collected was divided into each 2 ml, which was centrifuged at 3,000 rpm for 5 minutes. After removing the supernatant, a 150 mM phosphate buffer (pH 7.4) (10 ml) was added thereto, and the mixture was mildly mixed. The mixture was centrifuged at 3,000 rpm for 5 minutes, followed by washing with the same phosphate buffer as above. This procedure was repeated twice. Finally, the same phosphate buffer was added thereto to prepare a test blood cell suspension. The test compound was dissolved in a saline solution in a concentration of 2 mg/ml in case of No. 5666, and of 20 mg/ml in case of the test compounds of this invention. […] Immediately after the incubation, the mixture was centrifuged at 3,000 rpm for 5 minutes, and the supernatant (each 200 μl) was added to a well of a 96 well microplate (an immunoassay plate with plane bottom), and the absorbance (OD: optical density) was read with a microplate reader (at a wavelength of 550 nm). […] The hemolytic rate was calculated by the following equation: [formula] […]

[5] = Hemolytic activity; format: cell-based, Male Donryu rats; settings: rat, red blood cells; 20 μg/ml, 37° C., 60 minutes; read-out: hemolytic ratio
Procedure: as §1

SMILES: Cl.OC[C@H](O)CCOc1nc(N2CCNCC2)nc2ccccc12 [Compound BJ, 4-[(3R)-(3,4-Dihydroxybutan-1-yl)oxy]-2-(1-piperazinyl)quinazoline monohydrochloride]
- LD50 at 168 h ([1]; Intravenous injection): 118 mg/kg
- LD50 at 168 h ([1]; Oral administration): > 1000 mg/kg
- Evaluation ([2]; 30 mg/kg (po) (× 40 days)): Effective (when the minimum of the ratio [Min. T/C (%)] was less than 42%, the test compound was evaluated as "effective")
- Min. T/C (%) ([2]; 30 mg/kg (po) (× 40 days)): 38.8%
- Inhibitory activity of dye accumulation into solid tumor ([3]; 1.25 mg/kg): +
- Inhibitory activity of dye accumulation into solid tumor ([3]; 10 mg/kg): +

SMILES: CC(=O)O.O[C@@H]1COC[C@H]1Oc1nc(N2CCNCC2)nc2ccccc12 [Compound AI, 4-[(3R,4R)-(4-Hydroxytetrahydrofuran-3-yl)oxy]-2-(1-piperazinyl)quinazoline monoacetate]
- Evaluation ([2]; 40 mg/kg (po) (× 40 days)): Effective (when the minimum of the ratio [Min. T/C (%)] was less than 42%, the test compound was evaluated as "effective")
- Min. T/C (%) ([2]; 40 mg/kg (po) (× 40 days)): 31.7%
- Inhibitory activity of dye accumulation into solid tumor ([3]; 1.25 mg/kg): +
- Inhibitory activity of dye accumulation into solid tumor ([3]; 10 mg/kg): +

SMILES: O[C@@H]1C[C@@H](Oc2nc(N3CCNCC3)nc3ccccc23)C[C@@H]1O [Compound AM, 4-[(t-3,t-4-Dihydroxycyclopentan-r-1-yl)oxy]-2-(1-piperazinyl)quinazoline monohydrochloride]
- LD50 at 168 h ([1]; Intravenous injection): 101 mg/kg
- LD50 at 168 h ([1]; Oral administration): > 500 mg/kg
- Evaluation ([2]; 30 mg/kg (po) (× 40 days)): Effective (when the minimum of the ratio [Min. T/C (%)] was less than 42%, the test compound was evaluated as "effective")
- Min. T/C (%) ([2]; 30 mg/kg (po) (× 40 days)): 36.1%
- Inhibitory activity of dye accumulation into solid tumor ([3]; 1.25 mg/kg): +
- Inhibitory activity of dye accumulation into solid tumor ([3]; 10 mg/kg): +

SMILES: Cl.OC[C@@H](O)CCOc1nc(N2CCNCC2)nc2ccccc12 [Compound BI, 4-[(3S)-(3,4-Dihydroxybutan-1-yl)oxy]-2-(1-piperazinyl)quinazoline monohydrochloride]
- Inhibitory activity of dye accumulation into solid tumor ([3]; 1.25 mg/kg): +
- Inhibitory activity of dye accumulation into solid tumor ([3]; 10 mg/kg): +

SMILES: Cl.OC[C@H](O)[C@@H](O)COc1nc(N2CCNCC2)nc2ccccc12 [Compound BL, 4-[(2S,3S)-(2,3,4-Trihydroxybutan-1-yl)oxy]-2-(1-piperazinyl)quinazoline monohydrochloride]
- Inhibitory activity of dye accumulation into solid tumor ([3]; 1.25 mg/kg): +
- Inhibitory activity of dye accumulation into solid tumor ([3]; 10 mg/kg): +

SMILES: CC(=O)O.O[C@H]1COC[C@@H]1Oc1nc(N2CCNCC2)nc2ccccc12 [Compound AH, 4-[(3S,4S)-(4-Hydroxytetrahydrofuran-3-yl)oxy]-2-(1-piperazinyl)quinazoline monoacetate]
- Inhibitory activity of dye accumulation into solid tumor ([3]; 1.25 mg/kg): +
- Inhibitory activity of dye accumulation into solid tumor ([3]; 10 mg/kg): +

SMILES: C=CCN1CCN(c2nc(OCCCCC)c3ccccc3n2)CC1.O=C(O)/C=C/C(=O)O [No. 5666, 2-(4-Allylpiperazin-1-yl)-4-[(1-pentyl)oxy]-quinazoline monofumarate, reference compound]
- hemolytic activity (in words) [4]: induced hemolytic activity
- hemolysis at 1 h [5]: 38%
- Evaluation ([2]; 30 mg/kg (po) (× 40 days)): Non-effective
- Min. T/C (%) ([2]; 30 mg/kg (po) (× 40 days)): 59.7%
- Evaluation ([2]; 100 mg/kg (po) (× 40 days)): Effective (when the minimum of the ratio [Min. T/C (%)] was less than 42%, the test compound was evaluated as "effective")
- Min. T/C (%) ([2]; 100 mg/kg (po) (× 40 days)): 29.9%
- Inhibitory activity of dye accumulation into solid tumor ([3]; 1.25 mg/kg): -
- Inhibitory activity of dye accumulation into solid tumor ([3]; 10 mg/kg): +
- inhibition of the flow of blood into tumor tissue / dye accumulation (in words) ([3]; mouse solid tumor (colon 26)): has such an inhibitory activity

SMILES: O[C@@H]1[C@H](O)[C@@H](O)C[C@H]1Oc1nc(N2CCNCC2)nc2ccccc12 [Compound AQ, 4-[(1R,2R,3R,4S)-(2,3,4-Trihydroxycyclopentan-1-yl)oxy]-2-(1-piperazinyl)quinazoline 1/2 fumarate]
- Inhibitory activity of dye accumulation into solid tumor ([3]; 1.25 mg/kg): +
- Inhibitory activity of dye accumulation into solid tumor ([3]; 10 mg/kg): +

SMILES: C[C@H](O)[C@@H](O)COc1nc(N2CCNCC2)nc2ccccc12.Cl [Compound BG, 4-[(2S,3S)-(2,3-Dihydroxybutan-1-yl)oxy]-2-(1-piperazinyl)quinazoline monohydrochloride]
- Inhibitory activity of dye accumulation into solid tumor ([3]; 1.25 mg/kg): +
- Inhibitory activity of dye accumulation into solid tumor ([3]; 10 mg/kg): +

SMILES: O[C@@H]1[C@@H](Oc2nc(N3CCNCC3)nc3ccccc23)CC[C@@H]1O (relative stereo) [Compound AL, 4-[(t-2,t-3-Dihydroxycyclopentan-r-1-yl)oxy]-2-(1-piperazinyl)quinazoline monoacetate]
- Inhibitory activity of dye accumulation into solid tumor ([3]; 1.25 mg/kg): +
- Inhibitory activity of dye accumulation into solid tumor ([3]; 10 mg/kg): +

SMILES: CC(=O)O.O[C@@H]1COC[C@H]1Oc1nc(N2CCNCC2)nc2ccccc12 (relative stereo) [Compound AF, 4-[trans-(4-Hydroxytetrahydrofuran-3-yl)oxy]-2-(1-piperazinyl)quinazoline monoacetate]
- Inhibitory activity of dye accumulation into solid tumor ([3]; 1.25 mg/kg): +
- Inhibitory activity of dye accumulation into solid tumor ([3]; 10 mg/kg): +

SMILES: CC(=O)O.OCCOc1nc(N2CCNCC2)nc2ccccc12 [Compound BA, 4-[(2-Hydroxyethyl)oxy]-2-(1-piperazinyl)-quinazoline monoacetate]
- Inhibitory activity of dye accumulation into solid tumor ([3]; 1.25 mg/kg): +
- Inhibitory activity of dye accumulation into solid tumor ([3]; 10 mg/kg): +
